Solubility data for 7 compounds are collected here from patent US10483329B2, “Hole transporting material, hole transporting layer, OLED display panel electronic device comprising the same” (SHANGHAI TIANMA AM-OLED CO., LTD., priority 2016, dated 2019).

≈ marks a conversion by molar mass, not a printed value.

The term solubility denotes how much of the substance goes into solution per volume.

The nature of the data set: Solubility in NMP. The format is physicochemical. The note with it: organic solvent or mixture; solvent NMP (N-methylpyrrolidone).
Regarding `CC1(C)c2cc(N(c3ccc(-c4ccccc4)cc3)c3ccc(-c4ccccc4)cc3)ccc2-c2ccc(N(c3ccc(-c4ccccc4)cc3)c3ccc(-c4ccccc4)cc3)cc21` [Comparison Example 2, reference compound], the solubility amounted to 5.2 mg/mL (≈ 6.24 mM).

In the case of `Cc1cc(-c2ccc(N(c3ccc(-c4ccccc4)cc3)c3ccc4c(c3)C(C)(C)c3ccccc3-4)cc2)cc(C)c1N(c1ccc(-c2ccccc2)cc1)c1ccc2c(c1)C(C)(C)c1ccccc1-2` [Example 1], the solubility is 22 mg/mL (≈ 24.4 mM).

Take `c1ccc(-c2ccc(N(c3ccc(-c4ccccc4)cc3)c3ccc(N(c4ccc(-c5ccccc5)cc4)c4ccc(-c5ccccc5)cc4)cc3)cc2)cc1` [Comparison Example 4, reference compound]: the solubility amounted to 2.2 mg/mL (≈ 3.07 mM).

Regarding `Cc1cc(N(c2ccc3c(c2)C(C)(C)c2ccccc2-3)c2ccc3c(c2)C(C)(C)c2ccccc2-3)ccc1-c1ccc(N(c2ccc3c(c2)C(C)(C)c2ccccc2-3)c2ccc3c(c2)C(C)(C)c2ccccc2-3)cc1` [Example 4], the solubility came to 35 mg/mL (≈ 36.2 mM).

In the case of `Cc1cccc(C)c1-c1ccc(N(c2ccc3c(c2)C(C)(C)c2ccccc2-3)c2ccc3c(c2)C(C)(C)c2cc(N(c4ccc(-c5c(C)cccc5C)cc4)c4ccc5c(c4)C(C)(C)c4ccccc4-5)ccc2-3)cc1` [Example 3], the solubility worked out at 30 mg/mL (≈ 30.9 mM).

In the case of `Cc1cccc(-c2ccc(N(c3ccc(-c4cccc(C)c4)cc3)c3ccc4c(c3)C(C)(C)c3cc(N(c5ccc(-c6cccc(C)c6)cc5)c5ccc(-c6cccc(C)c6)cc5)ccc3-4)cc2)c1` [Example 2], the solubility is 28 mg/mL (≈ 31.5 mM).

`Cc1cccc(C)c1-c1ccc(N(c2ccc(-c3ccccc3)cc2)c2ccc(-c3ccc(N(c4ccc(-c5ccccc5)cc4)c4ccc(-c5c(C)cccc5C)cc4)cc3)cc2)cc1` [Comparison Example 3, reference compound]: the solubility was 2.9 mg/mL (≈ 3.42 mM).
